Patent publication US9260425B2 (Genetech, Inc., priority 2011, dated 2016)

target: Pim-1 (Homo sapiens (Human), UniProt P11309); assay: Pim kinase binding activity assay (Example 901), PIM-1 enzyme, Caliper microfluidic peptide phosphorylation; assay type: biochemical; conditions: 20 pM PIM-1, 10 μM ATP, 1 μM FAM-peptide, 90 minutes at room temperature
Method in brief: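 The readout was microfluidic mobility-shift separation of a FAM-tagged Pim-specific peptide, excited at 488 nm and read at 530 nm, with Ki calculated from percent conversion. Reactions held 20 pM PIM-1, 1 μM peptide and 10 μM ATP in pH 7.2 HEPES/MgCl2/DTT buffer, ran 90 min at room temperature and were stopped with EDTA.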

Pim-1, sequence (P11309 whole entry): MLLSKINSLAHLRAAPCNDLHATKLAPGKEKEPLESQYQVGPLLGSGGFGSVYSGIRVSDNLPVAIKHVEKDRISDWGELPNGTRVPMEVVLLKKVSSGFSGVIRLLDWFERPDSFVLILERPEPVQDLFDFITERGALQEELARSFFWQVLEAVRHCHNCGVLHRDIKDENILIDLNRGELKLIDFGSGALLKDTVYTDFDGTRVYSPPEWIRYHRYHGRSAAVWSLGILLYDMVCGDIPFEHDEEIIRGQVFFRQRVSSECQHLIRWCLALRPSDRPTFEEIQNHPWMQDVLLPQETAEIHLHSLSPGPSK

Row | SMILES | Ki [nM]
1 | CCn1cc(-c2cc3c(-c4ccc(C)c(N5CCNCC5)n4)n[nH]c3cn2)cn1 [Example 432, 5-(1-ethyl-1H-pyrazol-4-yl)-3-(5-methyl-6-(piperazin-1-yl)pyridin-2-yl)-1H-pyrazolo[3,4-c]pyridine] | 0.055
2 | Cc1ccc(F)c(-c2n[nH]c3cnc(-c4cnn(C)c4)cc23)c1 [Example 205, 3-(2-fluoro-5-methylphenyl)-5-(1-methyl-1H-pyrazol-4-yl)-1H-pyrazolo[3,4-c]pyridine] | 6.08
3 | CCn1cc(-c2cc3c(-c4cccc(N5CCCC[C@@H](O)C5)n4)n[nH]c3cn2)cn1 [Example 502, (R)-1-(6-(5-(1-ethyl-1H-pyrazol-4-yl)-1H-pyrazolo[3,4-c]pyridin-3-yl)pyridin-2-yl)azepan-3-ol] | 0.139
4 | Cn1cc(-c2cc3c(-c4cccc(N5CCC(N)CC5)n4)n[nH]c3cn2)cn1 [Example 174, 1-(6-(5-(1-methyl-1H-pyrazol-4-yl)-1H-pyrazolo[3,4-c]pyridin-3-yl)pyridin-2-yl)piperidin-4-amine] | 0.086
5 | O=C1CNCCN1c1cc2c(-c3cccc(N4CCNCC4)n3)n[nH]c2cn1 [Example 346, 1-(3-(6-(piperazin-1-yl)pyridin-2-yl)-1H-pyrazolo[3,4-c]pyridin-5-yl)piperazin-2-one] | 219
6 | CN1CCN(c2cc3c(-c4cccc(N5CCNCC5)n4)n[nH]c3cn2)CC1=O [Example 223, 1-methyl-4-(3-(6-(piperazin-1-yl)pyridin-2-yl)-1H-pyrazolo[3,4-c]pyridin-5-yl)piperazin-2-one] | 38.5
7 | c1ccc(-c2cc3c(-c4ccccn4)n[nH]c3cn2)nc1 [Example 256, 3,5-di(pyridin-2-yl)-1H-pyrazolo[3,4-c]pyridine] | 1500
8 | NCC1CCN(c2cncc(-c3cc4c(-c5ccccc5F)n[nH]c4cn3)c2)CC1 [Example 167, (1-(5-(3-(2-fluorophenyl)-1H-pyrazolo[3,4-c]pyridin-5-yl)pyridin-3-yl)piperidin-4-yl)methanamine] | 1.71
9 | N[C@H]1C[C@@H](F)CN(c2cccc(-c3n[nH]c4cnc(-c5cccnc5)cc34)n2)C1 [Example 321, (3S,5R)-5-fluoro-1-(6-(5-(pyridin-3-yl)-1H-pyrazolo[3,4-c]pyridin-3-yl)pyridin-2-yl)piperidin-3-amine] | 0.0662
10 | Fc1ccccc1-c1n[nH]c2cnc(-c3cnccc3OC[C@@H]3CCNC3)cc12 [Example 209, (R)-3-(2-fluorophenyl)-5-(4-(pyrrolidin-3-ylmethoxy)pyridin-3-yl)-1H-pyrazolo[3,4-c]pyridine] | 0.189
11 | CN1C(=O)CN(c2cc3c(-c4cccc(N5CCNCC5)n4)n[nH]c3cn2)C1=O [Example 371, 3-methyl-1-(3-(6-(piperazin-1-yl)pyridin-2-yl)-1H-pyrazolo[3,4-c]pyridin-5-yl)imidazolidine-2,4-dione] | 31.1
12 | C[C@H]1CN(c2cccc(-c3n[nH]c4cnc(-c5cnn(CCF)c5)cc34)n2)CCN1 [Example 503, (S)-5-(1-(2-fluoroethyl)-1H-pyrazol-4-yl)-3-(6-(3-methylpiperazin-1-yl)pyridin-2-yl)-1H-pyrazolo[3,4-c]pyridine] | 0.0294
13 | N[C@@H]1CCCN(c2cccc(-c3n[nH]c4cnc(N5CCOC5=O)cc34)n2)C1 [Example 370, (R)-3-(3-(6-(3-aminopiperidin-1-yl)pyridin-2-yl)-1H-pyrazolo[3,4-c]pyridin-5-yl)oxazolidin-2-one] | 180
14 | CCn1cc(-c2cc3c(-c4cc(CO)ccn4)n[nH]c3cn2)cn1 [Example 498, (2-(5-(1-ethyl-1H-pyrazol-4-yl)-1H-pyrazolo[3,4-c]pyridin-3-yl)pyridin-4-yl)methanol] | 17.2
15 | c1ccc(-c2n[nH]c3cnc(-c4cccnc4)cc23)nc1 [Example 204, 3-(pyridin-2-yl)-5-(pyridin-3-yl)-1H-pyrazolo[3,4-c]pyridine] | 11.6
16 | Cn1cc(-c2cc3c(-c4cccc(N5C[C@@H]6C[C@H]5CN6)n4)n[nH]c3cn2)cn1 [Example 216, 3-(6-((1S,4S)-2,5-diazabicyclo[2.2.1]heptan-2-yl)pyridin-2-yl)-5-(1-methyl-1H-pyrazol-4-yl)-1H-pyrazolo[3,4-c]pyridine] | 0.126
17 | O[C@@H]1CCCN(c2nc(-c3n[nH]c4cnc(-c5cccnc5)cc34)ccc2Br)C1 [Example 291, (R)-1-(3-bromo-6-(5-(pyridin-3-yl)-1H-pyrazolo[3,4-c]pyridin-3-yl)pyridin-2-yl)piperidin-3-ol] | 0.261
18 | N[C@H]1CCCN(c2cccc(-c3n[nH]c4cnc(N5CCNC(=O)C5)cc34)n2)C1 [Example 345, (S)-4-(3-(6-(3-aminopiperidin-1-yl)pyridin-2-yl)-1H-pyrazolo[3,4-c]pyridin-5-yl)piperazin-2-one] | 13.7
19 | Cn1cc(-c2cc3c(-c4cccc(NC5CCNCC5)n4)n[nH]c3cn2)cn1 [Example 200, 6-(5-(1-methyl-1H-pyrazol-4-yl)-1H-pyrazolo[3,4-c]pyridin-3-yl)-N-(piperidin-4-yl)pyridin-2-amine] | 0.092

Row | SMILES | Ki [nM]
20 | Cc1n[nH]c2cnc(-c3cnccc3N3CCC[C@@H](N)C3)cc12 [Example 119, (R)-1-(3-(3-methyl-1H-pyrazolo[3,4-c]pyridin-5-yl)pyridin-4-yl)piperidin-3-amine] | 1100
21 | N[C@@H]1CCN(c2ccc(-c3n[nH]c4cnc(-c5cccnc5)cc34)cn2)C1 [Example 203, (R)-1-(5-(5-(pyridin-3-yl)-1H-pyrazolo[3,4-c]pyridin-3-yl)pyridin-2-yl)pyrrolidin-3-amine] | 1.02
22 | CCn1cc(-c2cc3c(-c4cc(C)ccn4)n[nH]c3cn2)cn1 [Example 492, 5-(1-ethyl-1H-pyrazol-4-yl)-3-(4-methylpyridin-2-yl)-1H-pyrazolo[3,4-c]pyridine] | 23.2
23 | Cc1ccc(-c2n[nH]c3cnc(-c4cnn(C)c4)cc23)nc1N1CCN(C)CC1 [Example 440, 5-(1-methyl-1H-pyrazol-4-yl)-3-(5-methyl-6-(4-methylpiperazin-1-yl)pyridin-2-yl)-1H-pyrazolo[3,4-c]pyridine] | 0.029
24 | N[C@H]1CCCCN(c2cccc(-c3n[nH]c4cnc(-c5cnn(CCF)c5)cc34)n2)C1 [Example 519, (S)-1-(6-(5-(1-(2-fluoroethyl)-1H-pyrazol-4-yl)-1H-pyrazolo[3,4-c]pyridin-3-yl)pyridin-2-yl)azepan-3-amine] | 0.025
25 | Cn1cc(-c2cc3c(-c4cccc(N5CCNCC5)n4)n[nH]c3cn2)cn1 [Example 234, 5-(1-methyl-1H-pyrazol-4-yl)-3-(6-(piperazin-1-yl)pyridin-2-yl)-1H-pyrazolo[3,4-c]pyridine] | 0.036
26 | N[C@H]1CCC[C@@H](Nc2cccc(-c3n[nH]c4cnc(-c5cccnc5)cc34)n2)C1 [Example 340, (1R,3S)-N1-(6-(5-(pyridin-3-yl)-1H-pyrazolo[3,4-c]pyridin-3-yl)pyridin-2-yl)cyclohexane-1,3-diamine] | 0.044
27 | N[C@H]1CCCN(c2nc(-c3n[nH]c4cnc(-c5cccnc5)cc34)ccc2C2CC2)C1 [Example 485, (S)-1-(3-cyclopropyl-6-(5-(pyridin-3-yl)-1H-pyrazolo[3,4-c]pyridin-3-yl)pyridin-2-yl)piperidin-3-amine] | 0.022
28 | CNc1cccc(-c2n[nH]c3cnc(-c4cccnc4)cc23)n1 [Example 437, N-methyl-6-(5-(pyridin-3-yl)-1H-pyrazolo[3,4-c]pyridin-3-yl)pyridin-2-amine] | 0.409
29 | Cc1cncc(-c2cc3c(-c4cccc(N5CCCNCC5)n4)n[nH]c3cn2)n1 [Example 522, 3-(6-(1,4-diazepan-1-yl)pyridin-2-yl)-5-(6-methylpyrazin-2-yl)-1H-pyrazolo[3,4-c]pyridine] | 0.019
30 | Cc1ccc(-c2n[nH]c3cnc(-c4cccnc4)cc23)nc1N1CC[C@@H](O)C1 [Example 306, (R)-1-(3-methyl-6-(5-(pyridin-3-yl)-1H-pyrazolo[3,4-c]pyridin-3-yl)pyridin-2-yl)pyrrolidin-3-ol] | 0.22
31 | CCn1cc(-c2cc3c(-c4cccc(N5CCCCC(N)C5)n4)n[nH]c3cn2)cn1 (centres unmarked) [Example 518, 1-(6-(5-(1-ethyl-1H-pyrazol-4-yl)-1H-pyrazolo[3,4-c]pyridin-3-yl)pyridin-2-yl)azepan-3-amine] | 0.082
32 | c1ccc(-c2n[nH]c3cnc(-c4cnccn4)cc23)cc1 [Example 214, 3-phenyl-5-(pyrazin-2-yl)-1H-pyrazolo[3,4-c]pyridine] | 41.6
33 | Cn1cc(-c2cc3c(-c4cccc(N5CCC[C@@H](N)C5)c4)n[nH]c3cn2)cn1 [Example 222, (R)-1-(3-(5-(1-methyl-1H-pyrazol-4-yl)-1H-pyrazolo[3,4-c]pyridin-3-yl)phenyl)piperidin-3-amine] | 0.387
34 | Cn1cc(-c2cc3c(-c4cccc(NCC(C)(C)O)n4)n[nH]c3cn2)cn1 [Example 297, 2-methyl-1-(6-(5-(1-methyl-1H-pyrazol-4-yl)-1H-pyrazolo[3,4-c]pyridin-3-yl)pyridin-2-ylamino)propan-2-ol] | 0.034
35 | CCn1cc(-c2cc3c(-c4cccc(N5CCNC(CO)C5)n4)n[nH]c3cn2)cn1 (centres unmarked) [Example 463, (4-(6-(5-(1-ethyl-1H-pyrazol-4-yl)-1H-pyrazolo[3,4-c]pyridin-3-yl)pyridin-2-yl)piperazin-2-yl)methanol] | 0.084
36 | CCn1cc(-c2cc3c(-c4cccc(N5CCNCC(CO)C5)n4)n[nH]c3cn2)cn1 (centres unmarked) [Example 512, (1-(6-(5-(1-ethyl-1H-pyrazol-4-yl)-1H-pyrazolo[3,4-c]pyridin-3-yl)pyridin-2-yl)-1,4-diazepan-6-yl)methanol] | 0.04
37 | CCn1cc(-c2cc3c(-c4cccc(N5C[C@H]6CNC[C@H]6C5)n4)n[nH]c3cn2)cn1 [Example 395] | 0.404
38 | CC(C)(C)n1cc(-c2cc3c(-c4cccc(N5CCNCC5)n4)n[nH]c3cn2)cn1 [Example 448, 5-(1-tert-butyl-1H-pyrazol-4-yl)-3-(6-(piperazin-1-yl)pyridin-2-yl)-1H-pyrazolo[3,4-c]pyridine] | 0.376
